# Laboratory results as given in ChEMBL document CHEMBL4715821, “Discovery of 4-ethoxy-7H-pyrrolo[2,3-d]pyrimidin-2-amines as potent, selective and orally bioavailable LRRK2 inhibitors” (Bioorg Med Chem Lett, 2018).
# Assays:
# [1] = target: T1, Interleukin-1 receptor-associated kinase 4 (Homo sapiens) (UniProt Q9NWZ3); assay: Inhibition of wild-type human partial length IRAK4 (M1 to S460 residues) expressed in mammalian expression system assessed as residual activity at 1 uM by Kinomescan method relative to control
# T1 sequence (whole entry): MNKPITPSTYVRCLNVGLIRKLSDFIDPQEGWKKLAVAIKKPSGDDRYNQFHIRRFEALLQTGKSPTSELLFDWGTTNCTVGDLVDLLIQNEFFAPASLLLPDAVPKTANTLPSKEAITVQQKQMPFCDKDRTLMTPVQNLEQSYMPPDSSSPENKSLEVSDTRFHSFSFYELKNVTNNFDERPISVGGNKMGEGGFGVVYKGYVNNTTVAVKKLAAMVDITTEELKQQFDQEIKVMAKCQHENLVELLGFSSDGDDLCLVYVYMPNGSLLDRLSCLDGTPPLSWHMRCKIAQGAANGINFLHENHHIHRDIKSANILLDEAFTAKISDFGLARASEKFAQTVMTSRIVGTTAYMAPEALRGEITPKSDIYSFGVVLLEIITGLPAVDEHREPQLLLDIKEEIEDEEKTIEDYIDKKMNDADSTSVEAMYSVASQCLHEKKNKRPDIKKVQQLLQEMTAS
# [2] = target: RAC-alpha serine/threonine-protein kinase (Homo sapiens) (UniProt P31749); assay: Inhibition of wild-type human partial length AKT1 expressed in bacterial expression system assessed as residual activity at 1 uM by Kinomescan method relative to control
# [3] = target: TGF-beta receptor type-1 (Homo sapiens) (UniProt P36897); assay: Inhibition of wild-type human partial length TGFBR1 (D179 to M503 residues) expressed in bacterial expression system assessed as residual activity at 1 uM by Kinomescan method relative to control
# [4] = target: Tyrosine-protein kinase Blk (Homo sapiens) (UniProt P51451); assay: Inhibition of wild-type human partial length BLK (G211 to L503 residues) expressed in bacterial expression system assessed as residual activity at 1 uM by Kinomescan method relative to control
# [5] = target: CDK4/Cyclin D3 (Homo sapiens) (UniProt P11802+P30281); assay: Inhibition of wild-type human full length CDK4/cyclinD3 (M1 to E303 residues) expressed in mammalian expression system assessed as residual activity at 1 uM by Kinomescan method relative to control
# [6] = target: Myotonin-protein kinase (Homo sapiens) (UniProt Q09013); assay: Inhibition of wild-type human partial length DMPK (V47 to V415 residues) expressed in bacterial expression system assessed as residual activity at 1 uM by Kinomescan method relative to control
# [7] = target: Ephrin type-A receptor 1 (Homo sapiens) (UniProt P21709); assay: Inhibition of wild-type human partial length EPHA1 (V588 to I913 residues) expressed in bacterial expression system assessed as residual activity at 1 uM by Kinomescan method relative to control
# [8] = target: Ephrin type-A receptor 3 (Homo sapiens) (UniProt P29320); assay: Inhibition of wild-type human partial length EPHA3 (D604 to K889 residues) expressed in bacterial expression system assessed as residual activity at 1 uM by Kinomescan method relative to control
# [9] = target: Ephrin type-B receptor 4 (Homo sapiens) (UniProt P54760); assay: Inhibition of wild-type human partial length EPHB4 (H585 to G892 residues) expressed in bacterial expression system assessed as residual activity at 1 uM by Kinomescan method relative to control
# [10] = target: Mitogen-activated protein kinase 8 (Homo sapiens) (UniProt P45983); assay: Inhibition of wild-type human full length JNK1 (M1 to Q384 residues) expressed in mammalian expression system assessed as residual activity at 1 uM by Kinomescan method relative to control
# [11] = target: MAP kinase-interacting serine/threonine-protein kinase 2 (Homo sapiens) (UniProt Q9HBH9); assay: Inhibition of MNK2 (unknown origin) assessed as residual activity at 1 uM by Kinomescan method relative to control
# [12] = target: Serine/threonine-protein kinase 3 (Homo sapiens) (UniProt Q13188); assay: Inhibition of wild-type human partial length MST2 (D17 to E318 residues) expressed in bacterial expression system assessed as residual activity at 1 uM by Kinomescan method relative to control
# [13] = target: Myosin light chain kinase (Homo sapiens) (UniProt Q32MK0); assay: Inhibition of wild-type human partial length MLCK (D488 to K800 residues) expressed in bacterial expression system assessed as residual activity at 1 uM by Kinomescan method relative to control
# [14] = target: Mitogen-activated protein kinase 12 (Homo sapiens) (UniProt P53778); assay: Inhibition of wild-type human full length p38-gamma (M1 to L367 residues) expressed in mammalian expression system assessed as residual activity at 1 uM by Kinomescan method relative to control
# [15] = target: Ribosomal protein S6 kinase beta-1 (Homo sapiens) (UniProt P23443); assay: Inhibition of wild-type human partial length RPS6KB1 (M1 to S421 residues) expressed in mammalian expression system assessed as residual activity at 1 uM by Kinomescan method relative to control
# [16] = target: Protein kinase C beta type (Homo sapiens) (UniProt P05771); assay: Inhibition of PKCbeta2 (unknown origin) assessed as residual activity at 1 uM by Kinomescan method relative to control
# [17] = target: Protein kinase C gamma type (Homo sapiens) (UniProt P05129); assay: Inhibition of PKCgamma (unknown origin) assessed as residual activity at 1 uM by Kinomescan method relative to control
# [18] = target: Serine/threonine-protein kinase N2 (Homo sapiens) (UniProt Q16513); assay: Inhibition of wild-type human partial length PKN2 (E634 to C984 residues) expressed in bacterial expression system assessed as residual activity at 1 uM by Kinomescan method relative to control
# [19] = target: SRSF protein kinase 2 (Homo sapiens) (UniProt P78362); assay: Inhibition of wild-type human full length SRPK2 (M1 to S686 residues) expressed in bacterial expression system assessed as residual activity at 1 uM by Kinomescan method relative to control
# [20] = target: Serine/threonine-protein kinase 33 (Homo sapiens) (UniProt Q9BYT3); assay: Inhibition of wild-type human full length STK33 (M1 to L514 residues) expressed in bacterial expression system assessed as residual activity at 1 uM by Kinomescan method relative to control
# [21] = target: STE20/SPS1-related proline-alanine-rich protein kinase (Homo sapiens) (UniProt Q9UEW8); assay: Inhibition of wild-type human partial length STK39 (P43 to I357 residues) expressed in mammalian expression system assessed as residual activity at 1 uM by Kinomescan method relative to control
# [22] = target: Bone morphogenetic protein receptor type-2 (Homo sapiens) (UniProt Q13873); assay: Inhibition of wild-type human partial length BMPR2 (R179 to Q526 residues) expressed in mammalian expression system assessed as residual activity at 1 uM by Kinomescan method relative to control
# [23] = target: Serine/threonine-protein kinase PLK4 (Homo sapiens) (UniProt O00444); assay: Inhibition of wild-type human partial length PLK4 (M1 to S273 residues) expressed in mammalian expression system assessed as residual activity at 1 uM by Kinomescan method relative to control
# Sequence of Serine/threonine-protein kinase 3 (Homo sapiens) (Q13188 whole entry, the tested form may be a part): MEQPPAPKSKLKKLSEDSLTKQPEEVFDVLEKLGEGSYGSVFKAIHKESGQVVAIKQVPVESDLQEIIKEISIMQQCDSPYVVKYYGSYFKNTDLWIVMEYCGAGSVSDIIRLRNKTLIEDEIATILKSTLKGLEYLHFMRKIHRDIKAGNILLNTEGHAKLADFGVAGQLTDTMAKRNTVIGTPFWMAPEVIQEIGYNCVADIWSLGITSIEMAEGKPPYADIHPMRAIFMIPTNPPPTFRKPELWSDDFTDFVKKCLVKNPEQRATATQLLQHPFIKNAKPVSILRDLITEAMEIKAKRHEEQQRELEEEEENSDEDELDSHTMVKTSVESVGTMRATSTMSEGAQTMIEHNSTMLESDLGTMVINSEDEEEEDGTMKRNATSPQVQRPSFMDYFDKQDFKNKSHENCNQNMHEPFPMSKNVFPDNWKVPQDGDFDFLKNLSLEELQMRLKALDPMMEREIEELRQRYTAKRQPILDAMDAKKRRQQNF
# Sequence of TGF-beta receptor type-1 (Homo sapiens) (P36897 whole entry, the tested form may be a part): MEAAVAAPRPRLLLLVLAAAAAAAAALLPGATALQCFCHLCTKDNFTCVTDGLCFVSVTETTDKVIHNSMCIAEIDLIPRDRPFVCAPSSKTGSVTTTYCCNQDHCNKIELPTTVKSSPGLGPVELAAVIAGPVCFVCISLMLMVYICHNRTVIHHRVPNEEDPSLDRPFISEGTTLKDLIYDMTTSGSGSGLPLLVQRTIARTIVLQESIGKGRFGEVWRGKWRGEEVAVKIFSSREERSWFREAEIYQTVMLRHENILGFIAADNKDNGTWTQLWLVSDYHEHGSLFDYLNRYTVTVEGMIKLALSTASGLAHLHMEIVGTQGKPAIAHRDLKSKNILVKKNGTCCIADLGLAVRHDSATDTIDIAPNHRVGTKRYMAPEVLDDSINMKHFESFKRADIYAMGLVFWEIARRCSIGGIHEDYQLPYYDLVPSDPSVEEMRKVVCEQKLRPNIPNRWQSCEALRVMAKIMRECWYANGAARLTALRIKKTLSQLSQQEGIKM
# Sequence of SRSF protein kinase 2 (Homo sapiens) (P78362 whole entry, looked up, the tested form may be a part): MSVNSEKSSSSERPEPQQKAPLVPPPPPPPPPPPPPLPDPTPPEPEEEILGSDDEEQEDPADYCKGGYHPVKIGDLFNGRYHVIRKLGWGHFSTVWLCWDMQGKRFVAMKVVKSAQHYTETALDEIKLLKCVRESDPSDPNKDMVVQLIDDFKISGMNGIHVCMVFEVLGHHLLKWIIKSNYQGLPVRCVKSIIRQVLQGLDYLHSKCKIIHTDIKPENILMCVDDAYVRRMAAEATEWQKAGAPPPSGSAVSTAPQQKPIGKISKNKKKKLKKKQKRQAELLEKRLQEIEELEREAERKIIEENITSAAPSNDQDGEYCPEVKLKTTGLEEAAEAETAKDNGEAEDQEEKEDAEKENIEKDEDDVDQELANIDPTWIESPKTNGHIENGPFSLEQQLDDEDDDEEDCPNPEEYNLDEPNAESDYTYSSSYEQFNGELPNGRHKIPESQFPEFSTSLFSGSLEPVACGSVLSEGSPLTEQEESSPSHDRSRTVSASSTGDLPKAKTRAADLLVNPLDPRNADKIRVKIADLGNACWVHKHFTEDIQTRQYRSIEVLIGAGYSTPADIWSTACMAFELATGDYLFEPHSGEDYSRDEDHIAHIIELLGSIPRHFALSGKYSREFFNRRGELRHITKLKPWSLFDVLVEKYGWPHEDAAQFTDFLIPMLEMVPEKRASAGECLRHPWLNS
# Sequence of Ephrin type-A receptor 3 (Homo sapiens) (P29320 whole entry, the tested form may be a part): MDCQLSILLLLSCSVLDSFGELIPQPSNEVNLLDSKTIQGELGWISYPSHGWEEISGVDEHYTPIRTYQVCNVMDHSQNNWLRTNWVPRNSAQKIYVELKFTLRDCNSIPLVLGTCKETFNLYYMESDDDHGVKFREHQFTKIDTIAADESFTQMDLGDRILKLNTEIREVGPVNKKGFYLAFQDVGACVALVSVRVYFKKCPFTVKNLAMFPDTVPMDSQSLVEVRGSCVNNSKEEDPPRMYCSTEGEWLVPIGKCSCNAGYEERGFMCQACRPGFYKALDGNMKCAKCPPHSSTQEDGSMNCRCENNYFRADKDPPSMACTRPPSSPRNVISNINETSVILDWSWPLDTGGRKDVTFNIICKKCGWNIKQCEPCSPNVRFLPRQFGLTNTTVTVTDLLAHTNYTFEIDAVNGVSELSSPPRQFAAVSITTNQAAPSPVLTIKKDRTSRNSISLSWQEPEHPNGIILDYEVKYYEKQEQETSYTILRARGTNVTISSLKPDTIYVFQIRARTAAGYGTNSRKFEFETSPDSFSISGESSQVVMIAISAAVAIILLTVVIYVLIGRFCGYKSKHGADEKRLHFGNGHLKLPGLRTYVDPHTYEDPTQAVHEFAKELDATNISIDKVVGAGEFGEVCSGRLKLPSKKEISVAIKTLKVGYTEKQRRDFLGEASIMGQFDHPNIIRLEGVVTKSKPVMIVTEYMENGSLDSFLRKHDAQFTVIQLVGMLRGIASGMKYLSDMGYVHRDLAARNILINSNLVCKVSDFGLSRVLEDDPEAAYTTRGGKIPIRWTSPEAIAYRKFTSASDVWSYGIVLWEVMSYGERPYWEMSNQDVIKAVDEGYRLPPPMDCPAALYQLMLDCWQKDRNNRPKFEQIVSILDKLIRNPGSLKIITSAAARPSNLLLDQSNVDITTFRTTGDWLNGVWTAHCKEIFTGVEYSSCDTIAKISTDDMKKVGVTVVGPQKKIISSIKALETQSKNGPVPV
# Sequence of Ephrin type-A receptor 1 (Homo sapiens) (P21709 whole entry, the tested form may be a part): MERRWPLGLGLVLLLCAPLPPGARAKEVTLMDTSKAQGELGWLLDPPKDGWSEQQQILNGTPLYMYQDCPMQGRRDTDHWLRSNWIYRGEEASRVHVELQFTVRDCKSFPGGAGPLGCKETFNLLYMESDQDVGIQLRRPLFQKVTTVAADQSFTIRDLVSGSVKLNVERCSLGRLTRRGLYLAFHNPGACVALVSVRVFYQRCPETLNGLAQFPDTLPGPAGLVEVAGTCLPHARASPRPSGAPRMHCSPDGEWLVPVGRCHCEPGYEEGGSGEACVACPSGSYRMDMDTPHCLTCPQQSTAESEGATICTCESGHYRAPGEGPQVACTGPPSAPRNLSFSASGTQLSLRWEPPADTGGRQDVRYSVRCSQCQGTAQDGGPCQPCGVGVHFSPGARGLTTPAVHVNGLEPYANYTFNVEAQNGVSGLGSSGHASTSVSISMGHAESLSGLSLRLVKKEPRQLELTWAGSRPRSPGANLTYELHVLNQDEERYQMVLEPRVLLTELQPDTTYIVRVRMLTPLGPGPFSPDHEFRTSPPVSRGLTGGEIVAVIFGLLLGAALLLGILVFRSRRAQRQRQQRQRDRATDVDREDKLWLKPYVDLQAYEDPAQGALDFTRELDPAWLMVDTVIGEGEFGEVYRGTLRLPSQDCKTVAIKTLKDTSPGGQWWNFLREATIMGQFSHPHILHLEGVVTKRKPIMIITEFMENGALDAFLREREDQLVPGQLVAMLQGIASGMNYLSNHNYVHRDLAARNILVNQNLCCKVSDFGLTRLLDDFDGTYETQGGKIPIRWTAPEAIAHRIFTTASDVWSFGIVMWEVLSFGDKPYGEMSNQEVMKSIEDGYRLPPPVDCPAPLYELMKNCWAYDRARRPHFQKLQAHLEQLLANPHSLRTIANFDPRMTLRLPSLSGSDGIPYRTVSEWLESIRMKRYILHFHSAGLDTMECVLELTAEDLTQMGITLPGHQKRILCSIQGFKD
# Sequence of Ribosomal protein S6 kinase beta-1 (Homo sapiens) (P23443 whole entry, looked up, the tested form may be a part): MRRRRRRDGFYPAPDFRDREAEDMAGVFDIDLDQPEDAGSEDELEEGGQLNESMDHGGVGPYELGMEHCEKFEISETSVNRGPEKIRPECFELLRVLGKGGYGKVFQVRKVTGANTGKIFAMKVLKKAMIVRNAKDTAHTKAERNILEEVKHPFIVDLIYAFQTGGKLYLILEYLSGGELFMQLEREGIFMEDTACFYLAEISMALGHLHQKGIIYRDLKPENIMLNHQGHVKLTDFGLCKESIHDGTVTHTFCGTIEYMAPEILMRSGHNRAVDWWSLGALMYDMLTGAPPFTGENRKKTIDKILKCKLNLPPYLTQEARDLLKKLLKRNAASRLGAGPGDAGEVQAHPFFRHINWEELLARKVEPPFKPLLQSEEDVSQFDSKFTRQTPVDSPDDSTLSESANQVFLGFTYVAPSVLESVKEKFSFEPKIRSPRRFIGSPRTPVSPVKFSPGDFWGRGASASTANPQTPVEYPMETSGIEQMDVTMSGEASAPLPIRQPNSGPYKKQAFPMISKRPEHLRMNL
# Sequence of Mitogen-activated protein kinase 12 (Homo sapiens) (P53778 whole entry, the tested form may be a part): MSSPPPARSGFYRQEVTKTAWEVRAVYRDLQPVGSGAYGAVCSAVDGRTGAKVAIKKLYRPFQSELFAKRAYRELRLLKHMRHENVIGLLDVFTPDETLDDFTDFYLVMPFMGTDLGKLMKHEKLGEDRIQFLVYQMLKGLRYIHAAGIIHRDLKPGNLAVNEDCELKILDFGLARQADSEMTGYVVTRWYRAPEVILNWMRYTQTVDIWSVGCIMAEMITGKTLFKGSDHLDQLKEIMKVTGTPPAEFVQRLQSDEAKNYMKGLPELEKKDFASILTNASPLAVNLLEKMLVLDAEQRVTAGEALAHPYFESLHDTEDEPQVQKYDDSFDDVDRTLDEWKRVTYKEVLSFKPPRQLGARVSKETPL
# Sequence of RAC-alpha serine/threonine-protein kinase (Homo sapiens) (P31749 whole entry, the tested form may be a part): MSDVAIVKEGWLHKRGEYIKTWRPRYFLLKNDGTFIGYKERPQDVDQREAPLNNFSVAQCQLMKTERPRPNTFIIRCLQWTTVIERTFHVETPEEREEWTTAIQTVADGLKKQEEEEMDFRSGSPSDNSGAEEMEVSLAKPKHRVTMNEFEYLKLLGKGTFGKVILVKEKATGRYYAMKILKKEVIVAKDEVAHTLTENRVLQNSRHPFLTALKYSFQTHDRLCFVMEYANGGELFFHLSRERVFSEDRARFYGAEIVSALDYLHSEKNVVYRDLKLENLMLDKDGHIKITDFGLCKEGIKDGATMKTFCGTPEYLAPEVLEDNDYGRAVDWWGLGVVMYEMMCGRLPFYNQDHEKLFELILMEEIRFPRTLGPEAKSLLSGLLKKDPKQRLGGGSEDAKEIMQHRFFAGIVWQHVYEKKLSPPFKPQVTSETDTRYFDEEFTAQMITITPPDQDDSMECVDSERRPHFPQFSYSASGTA
smiles,measurement,setting,value
CCOc1nc(Nc2ccc(C(=O)N3CCOCC3)cc2OC)nc2[nH]ccc12,Activity,[1],104%
same,Activity,[2],104%
same,Activity,[3],96.6%
same,Activity,[4],114%
same,Activity,[5],92.8%
same,Activity,[6],103%
same,Activity,[7],95.5%
same,Activity,[8],99.6%
same,Activity,[9],96.3%
same,Activity,[10],40.5%
same,Activity,[11],102%
same,Activity,[12],99.3%
same,Activity,[13],15.8%
same,Activity,[14],103%
same,Activity,[15],104%
same,Activity,[16],89.1%
same,Activity,[17],101%
same,Activity,[18],101%
same,Activity,[19],82%
same,Activity,[20],49.5%
same,Activity,[21],97.5%
same,Activity,[22],72.2%
same,Activity,[23],58.8%
